Measured values as given in patent publication US12653803B2, “TREM2 agonists for the stimulation of microglia and methods of identification” (THE TRANSLATIONAL GENOMICS RESEARCH INSTITUTE, priority 2017, dated 2026).
Entries after “also recorded” stand apart in the source; their conditions may differ.

Columns and labels:
NFAT reporter = test: BW-NFAT-Luc counter screen (NFAT reporter only, no TREM2/TYROBP); format: cell-based, mouse; settings: for stimulation of the NFAT-Luc reporter-only counter screen cell line: NFAT-Luc cells without TREM2/TYROBP, sphingomyelin (120 μg/mL in counter screen)
Source text: (§1) Cell-based reporter assays were developed for identifying TREM2 agonists. A mouse T-lymphocyte cell line, BW5147.3, stably co-expressing full-length TREM2, full-length TYROBP, and a reporter (e.g., firefly luciferase) driven by NFAT-response elements, was established (FIG. 2). The parental BW5147.3 cells have no detectable expression of TREM2 or TYROBP (FIG. 4B) and can be used as a counter screen cell-line to identify false positive compounds that stimulate reporter expression independent of TREM2 and TYROBP. BW5147.3 lymphocytes play a central role in the immune system and have high viability (99-100%) in culture.
A counter screen cell line only expressing the Cignal Lenti NFAT Reporter (luc) was also created in parallel to the reporter (BW-NFAT-Luc cell line). The BW-NFAT-Luc cell line has the same MOI as the TREM2/TYROBP-NFAT-Luc cell line (MOI=20) but without expression of TREM2 or TYROBP.
Transmembrane signaling via TREM2 is accomplished through an ITAM-bearing trans-membrane adaptor protein, TYROBP or DAP12. TREM2 activation leads to the induction of transcription factor NFAT. Activation of TREM2 by ligands leads to the phosphorylation of TYROBP, the activation of the reporter, and quantitative production of luciferase. Previous studies using TREM2/TYROBP/NFAT reporter cell-lines have confirmed the stimulation of NFAT transcription following TREM2 activation. Compounds that directly stimulate NFAT signaling (stimulate luciferase activity in the BW-NFAT-Luc cell line) are eliminated as false positive. Thus, the counter screen with BW-NFAT-Luc cell line eliminates the false positive hits and confirms hits from TREM2/TYROBP cell lines screened.
To eliminate the false positive hits from the primary screen that might directly stimulate NFAT signaling, a counter screen was performed with the initial 27 compounds using the BW-NFAT-Luc cell line alone. […] The primary screen with the TREM2/TYROBP Luciferase reporter cell line identified Tyrphostin AG 538 as a positive hit with a relative luminescence of 16.08 (FIG. 6A). […]

TREM2/TYROBP = biological target: T1, TREM2/TYROBP (Homo sapiens, UniProt Q9NZC2); test: TREM2/TYROBP/NFAT-Luc luciferase reporter cell line screen (primary screen); format: cell-based; settings: for stimulation of reporter activity in the TREM2 screening cell line: TREM2/TYROBP/NFAT-Luc cells, positive controls: sphingomyelin at increasing concentrations or 120 μg/mL, PMA (1.5 ng/mL)/Ionomycin (375 nM)
T1 construct: stably co-expressing full-length TREM2, full-length TYROBP, and a reporter (e.g., firefly luciferase) driven by NFAT-response elements; expressed in transfected cells; host or cells: BW5147.3 mouse T-lymphocyte cell line, lentiviral transduction (pTYF vectors)
Source text: as §1
TREM2 and TYROBP geneArt double-stranded cDNA strings were synthesized (Life Technologies, Carlsbad, CA) and subcloned into pTYF lentiviral vectors to generate a pLenti expression clone. HEK293HT cells were next transfected using Superfect (Qiagen, Venlo, Netherlands), and viral particles were collected and concentrated. Stable expression of TREM2, TYROBP, and the Cignal Lenti NFAT Reporter (Luc) (Qiagen, Venlo, Netherlands) in BW5147.3 cells was accomplished by transduction in opti-MEM media (Life Technologies, Carlsbad, CA) containing 6 μg/ml Polybrene (Sigma-Aldrich, St. Louis, MO). […]
TREM2/TYROBP-NFAT-Luc cell line for HTS was optimized by testing TREM2-stimulated Luc-reporting as a function of growth medium, agonist concentration, induction time, assay duration, and cell density. […] Firefly luciferase levels were measured by chemiluminescence (Bright-Glo™, Promega, WI). […] The effect of reported TREM2 agonists to be served as positive controls were measured (FIG. 5), and the specific stimulation of our reporter through TREM2 by known ligand sphingomyelin was confirmed (FIG. 5).
The primary screening assay was conducted with a concentration of 5 μM for each of the 2,400 compounds (final 0.05% or 0.1% DMSO (v/v)) with two replicate screens with internal replicates. […] Subsequently, Luciferase activity was measured using Bright-Glo™ (Promega, Madison, WI).

T1 sequence (Q9NZC2 19-230, species assumed): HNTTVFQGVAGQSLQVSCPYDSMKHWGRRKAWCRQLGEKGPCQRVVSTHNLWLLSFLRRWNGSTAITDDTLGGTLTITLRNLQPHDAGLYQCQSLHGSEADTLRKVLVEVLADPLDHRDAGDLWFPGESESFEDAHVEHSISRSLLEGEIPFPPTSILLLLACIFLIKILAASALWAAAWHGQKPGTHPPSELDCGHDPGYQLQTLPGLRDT
T1 sequence (O43914 22-113 partner, species assumed): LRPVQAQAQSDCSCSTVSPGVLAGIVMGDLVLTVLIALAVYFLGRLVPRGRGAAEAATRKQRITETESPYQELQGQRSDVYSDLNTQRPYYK

Compound | direct stimulation of the NFAT reporter in the counter screen (NFAT reporter; NFAT-Luc reporter cell line, 1.5, 3, 6 and 12.5 μM) | relative luminescence (TREM2/TYROBP; primary screen, 5 μM, duplicates, 8 h treatment, TREM2/TYROBP/NFAT-Luc reporter cell line, relative to DMSO vehicle) | stimulation of the NFAT-Luc reporter-only counter screen cell line (NFAT reporter) | stimulation of the NFAT-Luc reporter-only counter screen cell line (NFAT reporter; listed as SM) | stimulation of reporter activity in the TREM2 screening cell line (TREM2/TYROBP) | stimulation of reporter activity in the TREM2 screening cell line (TREM2/TYROBP; listed as sphingomyelin)
N#C/C(=C\c1ccc(O)c(O)c1)C(=O)c1ccc(O)c(O)c1 [Tyrphostin AG 538] | did not stimulate the NFAT reporter directly | 16.08 | – | – | – | –
Sphingomyelin | – | – | did not show direct stimulation of the NFAT reporter | did not show any activity | stimulates; also recorded: similarly positive results | induce reporter activity
